Here are results for eight compounds from article PMC10288926 (Journal of Enzyme Inhibition and Medicinal Chemistry, 2023).

One may read the inhibition as the change of the read-out against control, counted positive when it falls.

In one assay the target is ROS1 (Homo sapiens, UniProt P08922). Nature of the assay: HTRF KinEASE-TK kinase inhibitory assay, ROS1. Type of assay: biochemical. As to conditions: for inhibition at 1 µM: read-out: ROS1 Inhibition (1μM); for ROS1 Inhibition (1μM): kinase inhibition % at 1 μM. (TR-FRET usually uses a lanthanide donor and a delayed reading to cut background.)
The subject of assay [1] is phosphorylation of ROS1 and ERK in CD74-ROS1^L2026M cell. Put plainly: Western blot of ROS1 and ERK phosphorylation, CD74-ROS1^L2026M Ba/F3 cells. Type of assay: cell-based. (In western blotting, separated proteins are transferred to a membrane and probed.)
For assay [2], the system named is HCC-78 cell line harbouring SLC34A2-ROS1 fusion. Put plainly: Antiproliferative MTT assay, HCC-78. The conditions noted are these: read-out: Cellular IC50 (μM) HCC-78. Type of assay: cell-based, human.
In assay [3] the test system is phosphorylation of ROS1 and ERK in CD74-ROS1^WT cell. Nature of the assay: Western blot of ROS1 and ERK phosphorylation, CD74-ROS1^WT Ba/F3 cells. Type of assay: cell-based.
Assay [4] concerns the target Ba/F3 CD74-ROS1^L2026M cell (Homo sapiens, UniProt P04233+P08922, L2026M). Nature of the assay: Antiproliferative CCK-8 assay, Ba/F3 CD74-ROS1^L2026M. Type of assay: cell-based. As to conditions: read-out: Ba/F3 cellular activities (nM) CD74-ROS1^L2026M; 72 h exposure, IC50, at least three independent experiments.
A further assay concerns the target Ba/F3 EML4-ALK^WT cell (Homo sapiens, UniProt Q9HC35+Q9UM73). Type of assay: cell-based. As to conditions: read-out: Ba/F3 cellular activities (nM) EML4-ALK^WT; 72 h exposure, IC50, at least three independent experiments.
The target in a further assay is Ba/F3 CD74-ROS1^WT cell (Homo sapiens, UniProt P04233+P08922). Put plainly: Antiproliferative CCK-8 assay, Ba/F3 CD74-ROS1^WT. Type of assay: cell-based. As to conditions: 72 h exposure, IC50, at least three independent experiments; for IC50: read-out: Ba/F3 cellular activities (nM) CD74-ROS1^WT.
The target of another assay is ALK^L1196M (Homo sapiens, UniProt Q9UM73, L1196M). Put plainly: HTRF KinEASE-TK kinase inhibitory assay, ALK^L1196M. Type of assay: biochemical.
For another assay, the target named is ALK^WT (Homo sapiens, UniProt Q9UM73). Put plainly: HTRF KinEASE-TK kinase inhibitory assay, ALK wild type. Type of assay: biochemical. The conditions noted are these: for ALK Inhibition (1μM): kinase inhibition % at 1 μM; for inhibition at 1 µM: read-out: ALK Inhibition (1μM).
Another assay has as its target c-MET (Homo sapiens, UniProt P08581). Nature of the assay: HTRF kinase inhibitory assay, c-MET. Type of assay: biochemical. The conditions noted are these: for c-MET Inhibition (1μM): kinase inhibition % at 1 μM; for inhibition at 1 µM: read-out: c-MET Inhibition (1μM).
Assay [5] deals with NCI-H3122 cell line harbouring EML4-ALK fusion. Put plainly: Antiproliferative MTT assay, NCI-H3122. The conditions noted are these: read-out: Cellular IC50 (μM) NCI-H3122. Type of assay: cell-based, human.
For assay [6], the target named is Ba/F3 EML4-ALK^L1196M cell (Homo sapiens, UniProt Q9HC35+Q9UM73, L1196M). Type of assay: cell-based. The conditions noted are these: read-out: Ba/F3 cellular activities (nM) EML4-ALK^L1196M; 72 h exposure, IC50, at least three independent experiments.
A further assay deals with ALK^G1202R (Homo sapiens, UniProt Q9UM73, G1202R). Put plainly: HTRF KinEASE-TK kinase inhibitory assay, ALK^G1202R. Type of assay: biochemical.
The target in assay [7] is Ba/F3 CD74-ROS1^G2032R cell (Homo sapiens, UniProt P04233+P08922, G2032R). Put plainly: Antiproliferative CCK-8 assay, Ba/F3 CD74-ROS1^G2032R. The conditions noted are these: for IC50: read-out: Ba/F3 cellular activities (nM) CD74-ROS1^G2032R, 72 h exposure, IC50, at least three independent experiments. Type of assay: cell-based.
Another assay concerns ROS1-G2032R. The conditions noted are these: read-out: cellular IC50 ROS1-G2032R; cited from earlier work.
In a further assay the test system is ALK. As to conditions: read-out: enzymatic IC50 against ALK; cited from earlier work.
Assay [8] relates to ROS1 phosphorylation in CD74-ROS1^G2032R cell. Put plainly: Western blot of ROS1 phosphorylation, CD74-ROS1^G2032R Ba/F3 cells. Type of assay: cell-based. As to conditions: up to 1000 nM.
The subject of assay [9] is phosphorylation of ALK in EML4-ALK^L1196M cell. Put plainly: Western blot of phosphorylation, EML4-ALK^L1196M Ba/F3 cells. Type of assay: cell-based.
Another assay relates to NCI-H3122 cells. Nature of the assay: Apoptosis assay. Type of assay: cell-based, human. As to conditions: 48 h, vehicle 11.24%.
A further assay has as its system HCC-78 cells. Nature of the assay: Apoptosis assay. Type of assay: cell-based, human.
[10] abbreviates: read-out: Enzymatic activities (nM) ALK^L1196M, IC50, average of two independent experiments.
Setting [11] is: read-out: ROS1 IC50, average of two independent experiments.
[12] abbreviates: MTT, 72 h, mean of at least three independent experiments.
[13] abbreviates: read-out: Enzymatic activities (nM) ALK^G1202R, IC50, average of two independent experiments.
The mark [14] stands for this setting: average of two independent experiments.

Read-outs that look alike come from different tables or passages of the source.

For `C[C@@H](Oc1cc(-c2cnn(C3CCNCC3)c2)cnc1N)c1c(Cl)ccc(F)c1Cl` [Crizotinib, reference compound], the inhibition at 1 µM at ROS1 was determined as 101%. Also, the “phosphorylation of ROS1 and ERK, CD74-ROS1^L2026M cell” value in [1] is “attenuated phosphorylation of ROS1 and its key downstream molecule ERK in a dose-dependent manner”. Moreover, in assay [2] (Homo sapiens, HCC78, 72 h), the IC50 worked out at 4.5 ± 1.4 µM. The “phosphorylation of ROS1 and ERK, CD74-ROS1^WT cell” value in assay [3] is “attenuated phosphorylation of ROS1 and its key downstream molecule ERK in a dose-dependent manner”.

With “(R)-5–(6-amino-5–(1-(4'-fluoro-[1,1'-biphenyl]-2-yl)ethoxy)pyridin-3-yl)-1'-methylspiro[indoline-3,4'-piperidin]-2-one [C02]”, the IC50 is 21.3 ± 4.7 nM in [4]; 191 ± 51.8 nM on Ba/F3 EML4-ALK^WT cell; 5.4 ± 1 nM at Ba/F3 CD74-ROS1^WT cell; 643 nM on ALK^L1196M (setting [10]); 4.6 nM at ROS1 (setting [11]); 30.1 nM at ALK^WT (read-out: ALK IC50). The IC50 in assay [5] (setting [12]) turned out to be 2.8 ± 0.9 µM; in assay [6] it was 148 ± 27.3 nM; in assay [2] (setting [12]), 4.4 ± 0.5 µM; at ALK^G1202R (setting [13]), 276 nM; in [7] it was 107 ± 12.6 nM. Also, on Ba/F3 CD74-ROS1^WT cell, the “Ba/F3 cellular activities (nM) CD74-ROS1^WT” value is listed as “comparable to Crizotinib”. For the same compound, on ROS1 (average of two independent experiments, 1 µM), the “ROS1 Inhibition (1μM)” value is given as 102%. Besides, on ALK^WT (1 µM), the “ALK Inhibition (1μM)” value is recorded as 98%. For the same compound, on c-MET (1 µM), the “c-MET Inhibition (1μM)” value was 69%.

For “(R)-5–(6-amino-5–(1-(4'-methoxy-[1,1'-biphenyl]-2-yl)ethoxy)pyridin-3-yl)-1'-methylspiro[indoline-3,4'-piperidin]-2-one [C03]”, the IC50 in assay [4] turned out to be 38.3 ± 5.9 nM; at Ba/F3 EML4-ALK^WT cell, 228 ± 47.3 nM; at Ba/F3 CD74-ROS1^WT cell, 18.3 ± 1.2 nM; at ROS1 (setting [11]), 11.6 nM; on ALK^WT (read-out: ALK IC50) it was 56.1 nM; in assay [5] (setting [12]), 1.9 ± 0.1 µM. Also, the IC50 was 185 ± 22.2 nM in [6], 4.6 ± 0.23 µM in assay [2] (setting [12]), 492 nM on ALK^G1202R (setting [13]) and 94.4 ± 31.9 nM in assay [7]. At ROS1 (setting [14]), the “ROS1 Inhibition (1μM)” value is 101%. In addition, the “ALK Inhibition (1μM)” value at ALK^WT amounted to 94%. In addition, at c-MET, the “c-MET Inhibition (1μM)” value was 63%.

In the case of `C[C@@H](Oc1cc(-c2cnn(C)c2)cnc1N)c1ccccc1-c1ccccc1` [B08, (R)-3–(1-([1,1'-biphenyl]-2-yl)ethoxy)-5–(1-methyl-1H-pyrazol-4-yl)pyridin-2-amine], the IC50 in assay [4] is 168 ± 56.3 nM; at Ba/F3 EML4-ALK^WT cell, 681 ± 151 nM; at Ba/F3 CD74-ROS1^WT cell, 20.9 ± 1.7 nM; on ALK^L1196M it was greater than 1000 nM; on ROS1, 37.4 nM; against ALK^WT it was 67.4 nM. Further, the IC50 in assay [5] (Homo sapiens, NCI-H3122, 72 h) is 5.7 ± 0.6 µM; in [6] it was 1810 ± 270 nM; in assay [2] (Homo sapiens, HCC78, 72 h) it was 4.6 ± 0.8 µM; against ALK^G1202R it was 195 nM; in assay [7] it was 317 ± 92.1 nM. Moreover, the “fold more potent than compound B03, ROS1 IC50” value on ROS1 is “about 10 fold”. The inhibition at 1 µM on ROS1 was found to be 103%; on ALK^WT it was 100%; at c-MET it was 64%. The “fold more potent than compound B03, ALK IC50” value on ALK^WT is given as roughly 4 fold.

In the case of `C[C@H]1Oc2cc(cnc2N)-c2c(nn(C)c2C#N)CN(C)C(=O)c2ccc(F)cc21` [Lorlatinib], the IC50 in the assay with ROS1-G2032R is 203 nM.

As for `C[C@@H](Oc1cc(-c2ccc3c(c2)NC(=O)C32CCN(C)CC2)cnc1N)c1c(Cl)ccc(F)c1Cl` [SMU-B, reference compound], the results for the IC50 in the assay on ALK and at ROS1 (setting [11]) were less than 0.5 nM and 1.48 nM, respectively.

For the compound “(R)-5–(5-(1-([1,1'-biphenyl]-2-yl)ethoxy)-6-aminopyridin-3-yl)-1'-methylspiro[indoline-3,4'-piperidin]-2-one [C01]”, the IC50 in assay [4] was determined as 33.1 ± 1.4 nM; on Ba/F3 EML4-ALK^WT cell it was 145 ± 36 nM; at Ba/F3 CD74-ROS1^WT cell, 7.6 ± 0.6 nM; on ALK^L1196M (setting [10]) it was 404 nM; at ROS1 (setting [11]), 4.7 nM; on ALK^WT (read-out: ALK IC50), 25.6 nM. Besides, the IC50 in assay [5] (setting [12]) worked out at 3 ± 0.1 µM; in assay [6] it was 120 ± 17.3 nM; in [2] (setting [12]), 3.9 ± 0.5 µM; at ALK^G1202R (setting [13]), 49.1 nM; in [7] it was 42.3 nM. For the same compound, the “ROS1 phosphorylation, CD74-ROS1^G2032R cell” value in assay [8] is given as “significant inhibition of ROS1 phosphorylation occurred in a dose-dependent manner”. Besides, in assay [9], the “phosphorylation, EML4-ALK^L1196M cell” value was “persistent potency”. In addition, on Ba/F3 CD74-ROS1^WT cell, the “Ba/F3 cellular activities (nM) CD74-ROS1^WT” value was “comparable to Crizotinib”. The “ROS1 Inhibition (1μM)” value on ROS1 (setting [14]) was 100%. Further, in assay [1], the “phosphorylation of ROS1 and ERK, CD74-ROS1^L2026M cell” value is “attenuated phosphorylation of ROS1 and its key downstream molecule ERK in a dose-dependent manner”. Moreover, the “ALK Inhibition (1μM)” value on ALK^WT is 101%. Also, the “percentage of apoptotic NCI-H3122 cell” value in the assay on NCI-H3122 cells (1.5 μM (IC50/2)) came to 15.61%; in the assay on NCI-H3122 cells (3.0 μM (1 IC50)), 29.47%; with NCI-H3122 cells (6.0 μM (2 IC50)) it was 35.13%. Further, the “c-MET Inhibition (1μM)” value on c-MET is given as 70%. Also, the “fold potency superior to Crizotinib, ALK^G1202R enzyme” value at ALK^G1202R (ratio of enzymatic IC50 to Crizotinib) came to 10 fold. Besides, the “percentage of apoptotic HCC-78 cell” value is 15.9% in the assay with HCC-78 cells (2.0 μM (IC50/2), 48 h, vehicle 10.7%); 31.7% in the assay on HCC-78 cells (7.8 μM (2 IC50), 48 h, vehicle 10.7%); “superior to that of Crizotinib treatment group” with HCC-78 cells (C01 3.9 μM (1 IC50) vs Crizotinib 4.5 μM (1 IC50)). Further, the “fold more potent than Crizotinib, CD74-ROS1^G2032R cell” value in [7] (ratio of cellular IC50 to Crizotinib) was “about 30 fold”. Also, the “phosphorylation of ROS1 and ERK, CD74-ROS1^WT cell” value in [3] is “attenuated phosphorylation of ROS1 and its key downstream molecule ERK in a dose-dependent manner”.

For `C[C@@H](Oc1cc(-c2cnn(C)c2)cnc1N)c1ccccc1F` [A06, (R)-3–(1-(2-fluorophenyl)ethoxy)-5–(1-methyl-1H-pyrazol-4-yl)pyridin-2-amine], the IC50 is 83.1 nM against ROS1; 231 nM against ALK^WT; 10.2 ± 0.1 µM in assay [5] (Homo sapiens, NCI-H3122, 72 h); 16 ± 1.2 µM in [2] (Homo sapiens, HCC78, 72 h). For the same compound, the inhibition at 1 µM at ROS1 stood at 100%; at ALK^WT it was 73%; on c-MET it was 11%.
